These results are taken from US20240246992A1, “MACROCYCLIC LRRK2 KINASE INHIBITORS” (LES LABORATOIRES SERVIER, priority 2021, published 2024).

The term IC50 denotes the point on the concentration scale where inhibition reaches its midpoint.

human recombinant LRRK2 protein, sequence (Q5S007 whole entry): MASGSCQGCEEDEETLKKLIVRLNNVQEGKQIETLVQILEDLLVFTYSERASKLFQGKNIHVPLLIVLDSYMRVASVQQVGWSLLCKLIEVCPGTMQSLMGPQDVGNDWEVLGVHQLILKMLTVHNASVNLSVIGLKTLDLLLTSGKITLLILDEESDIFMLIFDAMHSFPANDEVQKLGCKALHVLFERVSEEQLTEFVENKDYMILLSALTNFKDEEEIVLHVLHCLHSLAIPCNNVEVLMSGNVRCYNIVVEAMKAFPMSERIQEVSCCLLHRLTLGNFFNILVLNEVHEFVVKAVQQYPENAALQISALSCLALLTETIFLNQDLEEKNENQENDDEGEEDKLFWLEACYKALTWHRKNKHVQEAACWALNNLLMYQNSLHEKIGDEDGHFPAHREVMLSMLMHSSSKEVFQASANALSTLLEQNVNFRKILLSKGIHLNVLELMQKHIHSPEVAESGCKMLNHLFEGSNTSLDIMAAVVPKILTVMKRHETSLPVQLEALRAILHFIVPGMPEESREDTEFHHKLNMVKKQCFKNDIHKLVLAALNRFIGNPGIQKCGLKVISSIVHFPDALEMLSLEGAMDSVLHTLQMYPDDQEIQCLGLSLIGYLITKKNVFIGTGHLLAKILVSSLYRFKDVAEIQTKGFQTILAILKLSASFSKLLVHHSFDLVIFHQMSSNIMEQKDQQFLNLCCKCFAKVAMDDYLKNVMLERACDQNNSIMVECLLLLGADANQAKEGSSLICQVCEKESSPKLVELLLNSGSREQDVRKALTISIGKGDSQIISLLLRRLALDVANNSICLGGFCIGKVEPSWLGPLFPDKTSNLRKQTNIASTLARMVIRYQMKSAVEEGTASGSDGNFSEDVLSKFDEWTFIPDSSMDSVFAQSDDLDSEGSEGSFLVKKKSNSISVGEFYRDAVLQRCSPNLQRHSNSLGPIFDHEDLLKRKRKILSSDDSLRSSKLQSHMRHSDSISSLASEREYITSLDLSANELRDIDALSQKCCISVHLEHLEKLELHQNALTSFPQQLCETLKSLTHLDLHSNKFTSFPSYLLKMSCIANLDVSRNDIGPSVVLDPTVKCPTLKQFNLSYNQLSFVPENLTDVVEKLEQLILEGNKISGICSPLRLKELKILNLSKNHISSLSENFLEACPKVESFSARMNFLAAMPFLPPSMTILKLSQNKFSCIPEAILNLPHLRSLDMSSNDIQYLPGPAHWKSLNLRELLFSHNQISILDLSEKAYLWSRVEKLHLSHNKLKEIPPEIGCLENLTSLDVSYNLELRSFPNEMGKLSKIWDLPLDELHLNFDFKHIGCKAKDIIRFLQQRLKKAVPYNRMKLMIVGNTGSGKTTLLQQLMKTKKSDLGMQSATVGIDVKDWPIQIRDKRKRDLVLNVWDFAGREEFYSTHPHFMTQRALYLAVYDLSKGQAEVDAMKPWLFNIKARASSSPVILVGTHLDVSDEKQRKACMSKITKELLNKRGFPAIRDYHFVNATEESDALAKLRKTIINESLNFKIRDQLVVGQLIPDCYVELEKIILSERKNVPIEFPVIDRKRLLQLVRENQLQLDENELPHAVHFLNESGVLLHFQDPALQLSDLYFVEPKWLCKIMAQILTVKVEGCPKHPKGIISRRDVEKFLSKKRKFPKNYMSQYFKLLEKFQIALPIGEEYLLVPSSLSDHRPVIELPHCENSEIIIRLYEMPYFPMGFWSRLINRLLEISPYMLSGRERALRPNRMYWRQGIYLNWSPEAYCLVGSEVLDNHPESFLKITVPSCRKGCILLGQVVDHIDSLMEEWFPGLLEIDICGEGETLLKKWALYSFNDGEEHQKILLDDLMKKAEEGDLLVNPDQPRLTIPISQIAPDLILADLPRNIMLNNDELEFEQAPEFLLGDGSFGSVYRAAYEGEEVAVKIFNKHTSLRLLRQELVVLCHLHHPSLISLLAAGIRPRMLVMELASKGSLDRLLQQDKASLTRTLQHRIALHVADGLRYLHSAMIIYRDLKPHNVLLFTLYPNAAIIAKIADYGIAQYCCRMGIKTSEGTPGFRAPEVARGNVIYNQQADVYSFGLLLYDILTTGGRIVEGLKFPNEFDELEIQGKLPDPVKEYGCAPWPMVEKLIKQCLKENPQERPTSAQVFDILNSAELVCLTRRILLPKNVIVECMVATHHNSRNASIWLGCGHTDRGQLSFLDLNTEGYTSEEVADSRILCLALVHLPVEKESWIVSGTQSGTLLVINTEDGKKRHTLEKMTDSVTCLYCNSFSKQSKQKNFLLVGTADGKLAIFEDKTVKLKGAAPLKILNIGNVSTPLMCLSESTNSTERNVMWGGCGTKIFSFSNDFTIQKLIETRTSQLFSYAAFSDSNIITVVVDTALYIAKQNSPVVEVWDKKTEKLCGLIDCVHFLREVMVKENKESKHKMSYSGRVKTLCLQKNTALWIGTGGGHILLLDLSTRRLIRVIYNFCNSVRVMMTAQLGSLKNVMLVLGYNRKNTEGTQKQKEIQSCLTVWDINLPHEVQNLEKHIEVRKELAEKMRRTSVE

For this test, the target named is human recombinant LRRK2 protein (Homo sapiens, UniProt Q5S007). Put plainly: LRRK2 kinase activity assay (ADP-Glo, LRRKtide peptide). The following applies: human recombinant LRRK2 wt, LRRKtide peptide and ATP, 1 h at 37° C. It is filed as biochemical. The essentials:
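Human recombinant LRRK2 reacted with LRRKtide peptide and ATP for 1 h at 37 °C in the presence of compound. ADP formed measured by ADP-Glo luminescence; IC50 fitted from 10 concentrations run in duplicate.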
For orientation: In ADP-Glo the light output rises with the ADP produced.
As for `CN1CCOCCOc2cc(cc(N3CCOCC3)c2)-c2n[nH]c3ccc(cc23)C1` [Example 91, 13-methyl-4-(morpholin-4-yl)-7,10-dioxa-13,19,20-triazatetracyclo [13.5.2.1^2,6.0^18,21]tricosa-1(20),2,4,6(23),15,17,21-heptaene], the IC50 was less than 100 nM. As to `C[C@H]1CCNC(=O)CCn2ncc(n2)-c2n[nH]c3ccc(cc23)O1` [Example 226, (12S)-12-methyl-13-oxa-4,5,9,18,19,22-hexaazatetracyclo [12.5.2.1^2,5.0^17,20]docosa-1(19),2(22),3,14(21),15,17(20)-hexaen-8-one], the IC50 was less than 10 nM. As for `C[C@@H]1OCCOC[C@H](C)Oc2ccc3[nH]nc(c3c2)-c2cncc1c2` [Example 9, (7S,13S)-7,13-dimethyl-8,11,14-trioxa-4,19,20-triazatetracyclo[13.5.2.1^2,6.0^18,21]tricosa-1(20),2(23),3,5,15(22),16,18(21)-heptaene], the figure is less than 100 nM; as for `C[C@H]1CCOCCCOc2ccc3[nH]nc(c3c2)-c2cnn1c2` [Example 15, (6S)-6-methyl-9,13-dioxa-4,5,18,19-tetraazatetracyclo[12.5.2.1^2,5.0^17,20] docosa-1(19),2(22),3,14(21),15,17(20)-hexaene], less than 10 nM.

As for `Cc1cc2cc(c1)-c1n[nH]c3ccc(cc13)OCCCNCCO2` [Example 145, 4-methyl-7,14-dioxa-10,19,20-triazatetracyclo[13.5.2.1^2,6.0^18,21]tricosa-1(20),2(23),3,5,15,17,21-heptaene], the IC50 is less than 10 nM. Then `O=C1CCn2ncc(n2)-c2n[nH]c3ccc(cc23)OC[C@@H](F)CN1` [Example 225, (11S)-11-fluoro-13-oxa-4,5,9,18,19,22-hexaazatetracyclo [12.5.2.1^2,5.0^17,20]docosa-1(19),2(22),3,14(21),15,17(20)-hexaen-8-one], with less than 10 nM. As for `C[C@@H]1COc2ccc3[nH]nc(c3c2)-c2cccc(c2)OCCN[C@H]1C` [Example 169, (11S,12S)-11,12-dimethyl-7,14-dioxa-10,19,20-triazatetracyclo[13.5.2.1^2,6.0^18,21]tricosa-1(20),2(23),3,5,15(22),16,18(21)-heptaene], the figure is less than 100 nM; as for `C[C@@H]1CCOCC[C@H](C)Oc2ccc3[nH]nc(c3c2)-c2cnn1c2` [Example 25, (6R,12S)-6,12-dimethyl-9,13-dioxa-4,5,18,19-tetraazatetracyclo[12.5.2.1^2,5.0^17,20]docosa-1(19),2(22),3,14(21),15,17(20)-hexaene], less than 100 nM. On to `C[C@@H]1CCNCCOc2cc(cc(N3CCOCC3)c2)-c2n[nH]c3ccc(cc23)O1` [Example 173, (13R)-13-methyl-4-(morpholin-4-yl)-7,14-dioxa-10,19,20-triazatetracyclo[13.5.2.1^2,6.0^18,21]tricosa-1(20),2(23),3,5,15,17,21-heptaene], for which the half-maximal inhibitory concentration (IC50) is less than 10 nM. On to `CO[C@@H]1CCN(c2cc3nc(n2)O[C@H](C)COCC[C@H](C)Oc2ccc4[nH]nc-3c4c2)C1` [Example 49, (8R,13S)-4-[(3R)-3-methoxypyrrolidin-1-yl]-8,13-dimethyl-7,10,14-trioxa-5,19,20,23-tetraazatetracyclo[13.5.2.1^2,6.0^18,21]tricosa-1(20),2(23),3,5, 15(22),16,18(21)-heptaene], for which the IC50 was less than 10 nM. As for `C[C@@H]1CCOCC[C@H](C)n2cc(cn2)-c2n[nH]c3ccc(cc23)O1` [Example 36, (6S,12R)-6,12-dimethyl-9,13-dioxa-4,5,18,19-tetraazatetracyclo[12.5.2.1^2,5.0^17,20]docosa-1(19),2(22),3,14(21),15,17(20)-hexaene], the figure is less than 10 nM. Consider `CC1Oc2cc(cc(N3CCOCC3)c2)-c2n[nH]c3ccc(cc23)OCCCNC1=O` (stereo not drawn) [Example 176, 8-methyl-4-(morpholin-4-yl)-7,14-dioxa-10,19,20-triazatetracyclo[13.5.2.1^2,6.0^18,21]tricosa-1(20),2,4,6(23),15,17,21-heptaen-9-one], for which the IC50 is less than 10 nM. As for `C[C@H]1CCNCCOc2cc(cc(N3CCOCC3)c2)-c2n[nH]c3ccc(cc23)O1` [Example 175, (13S)-13-methyl-4-(morpholin-4-yl)-7,14-dioxa-10,19,20-triazatetracyclo[13.5.2.1^2,6.0^18,21]tricosa-1(20),2(23),3,5,15,17,21-heptaene], the figure is less than 10 nM. As for `c1cc2[nH]nc3c2cc1OCCCCOCCn1ncc-3n1` [Example 115, 8,13-dioxa-4,5,18,19,22-pentaazatetracyclo[12.5.2.1^2,5.0^17,20]docosa-1(19),2(22),3,14(21),15,17(20)-hexaene], the figure is less than 10 nM; as for `[2H]C1([2H])OCCn2cc(cn2)-c2n[nH]c3ccc(cc23)OC[C@H](C)OC1([2H])[2H]` [Example 107, (12S)-12-methyl(9,9,10,10-^2H4)-8,11,14-trioxa-4,5,19,20-tetraazatetracyclo [13.5.2.1^2,5.0^18,21]tricosa-1(20),2(23),3,15,17,21-hexaene], less than 10 nM; as for `O=C1COc2cc(C3=CCOC3)cc(c2)-c2n[nH]c3ccc(cc23)OCCCN1` [Example 211, 4-(2,5-dihydrofuran-3-yl)-7,14-dioxa-10,19,20-triazatetracyclo[13.5.2.1^2,6.0^18,21]tricosa-1(20),2(23),3,5,15,17,21-heptaen-9-one], less than 10 nM. Then `CC1CCOc2ccc3[nH]nc(c3c2)-c2cccc(n2)OCCN1` (stereo not drawn) [Example 240, 11-methyl-7,14-dioxa-10,19,20,23-tetraazatetracyclo[13.5.2.1^2,6.0^18,21]tricosa-1(20),2,4,6(23),15,17,21-heptaene], with less than 10 nM; and `COCC1CCOc2ccc3[nH]nc(c3c2)-c2cccc(c2)OCC(=O)N1` (single isomer, unassigned) [Example 152, (11R) or (11S)-11-(methoxymethyl)-7,14-dioxa-10,19,20-triazatetracyclo[13.5.2.1^2,6.0^18,21]tricosa-1(20),2(23),3,5,15,17,21-heptaen-9-one], with less than 100 nM. Consider `C[C@H]1CCOCCOc2nc(cc(N3CCCC3)n2)-c2n[nH]c3ccc(cc23)N1` [Example 39, (13S)-13-methyl-4-(pyrrolidin-1-yl)-7,10-dioxa-5,14,19,20,23-pentaazatetra cyclo[13.5.2.1^2,6.0^18,21]tricosa-1(20),2(23),3,5,15(22),16,18(21)-heptaene], for which the IC50 was less than 10 nM. Take `C[C@@H]1C[C@@H](C)Oc2ccc3[nH]nc(c3c2)-c2cnn(c2)CCCO1` [Example 126, (10R,12R)-10,12-dimethyl-9,13-dioxa-4,5,18,19-tetraazatetracyclo [12.5.2.1^2,5.0^17,20]docosa-1(19),2(22),3,14(21),15,17(20)-hexaene]: the IC50 is less than 10 nM.

On to `C[C@H]1CCOCCCn2cc(cn2)-c2n[nH]c3ccc(cc23)O1` [Example 32, (12S)-12-methyl-9,13-dioxa-4,5,18,19-tetraazatetracyclo[12.5.2.1^2,5.0^17,20] docosa-1(19),2(22),3,14(21),15,17(20)-hexaene], for which the IC50 was less than 10 nM. Then `Cc1ccc2cc1OCCNCCCOc1ccc3[nH]nc-2c3c1` [Example 141, 5-methyl-7,14-dioxa-10,19,20-triazatetracyclo[13.5.2.1^2,6.0^18,21] tricosa-1(20),2,4,6(23),15,17,21-heptaene], with less than 10 nM; and `O=C1COc2nccc(n2)-c2n[nH]c3ccc(cc23)OCCCN1` [Example 196, 7,14-dioxa-5,10,19,20,23-pentaazatetracyclo[13.5.2.1^2,6.0^18,21]tricosa-1(20),2(23),3,5,15(22),16,18(21)-heptaen-9-one], with less than 10 nM.

As for `C[C@@H]1CCOCCCc2ncn(n2)-c2n[nH]c3ccc(cc23)O1` [Example 125, (12R)-12-methyl-9,13-dioxa-2,4,18,19,22-pentaazatetracyclo[12.5.2.1^2,5.0^17,20]docosa-1(19),3,5(22),14(21),15,17(20)-hexaene], the IC50 is less than 10 nM. For the compound `C[C@@H]1CNCCO[C@H](C)c2cncc(c2)-c2n[nH]c3ccc(cc23)O1` (single isomer, unassigned) [Example 235, (7R or 7S,13R)-7,13-dimethyl-8,14-dioxa-4,11,19,20-tetraazatetracyclo[13.5.2.1^2,6.0^18,21]tricosa-1(20),2(23),3,5,15(22),16,18(21)-heptaene], the IC50 is less than 100 nM.

On to `c1cc2[nH]nc3c2cc1OCCCNCCOc1cc-3cc(C2CCOCC2)c1` [Example 147, 4-(oxan-4-yl)-7,14-dioxa-10,19,20-triazatetracyclo[13.5.2.1^2,6.0^18,21]tricosa-1(20),2(23),3,5,15,17,21-heptaene], for which the IC50 is less than 10 nM. In the case of `CN1CCCOc2ccc3[nH]nc(c3c2)-c2cc(ccn2)OCC1=O` [Example 194, 10-methyl-7,14-dioxa-3,10,19,20-tetraazatetracyclo[13.5.2.1^2,6.0^18,21]tricosa-1(20),2(23),3,5,15(22),16,18(21)-heptaen-9-one], the IC50 is less than 1000 nM. As for `O=C1CCn2ncc(n2)-c2n[nH]c3ccc(cc23)OCCCN1` [Example 181, 13-oxa-4,5,9,18,19,22-hexaazatetracyclo[12.5.2.1^2,5.0^17,20] docosa-1(19),2(22),3,14(21),15,17(20)-hexaen-8-one], the figure is less than 10 nM; as for `C[C@@H]1CCn2cc(cn2)-c2n[nH]c3ccc(cc23)O[C@H](C)CCO1` [Example 98, (8R,12R)-8,12-dimethyl-9,13-dioxa-4,5,18,19-tetraazatetracyclo[12.5.2.1^2,5.0^17,20]docosa-1(19),2(22),3,14(21),15,17(20)-hexaene], less than 10 nM.

As to `c1cc2[nH]nc3c2cc1OCCCCOCCn1cc-3cn1` [Example 102, 8,13-dioxa-4,5,18,19-tetraazatetracyclo[12.5.2.1^2,5.0^17,20]docosa-1(19),2(22),3,14(21),15,17(20)-hexaene], the IC50 is less than 10 nM.
